Publication PMC6891695, “Evaluation of Antifouling Potential and Ecotoxicity of Secondary Metabolites Derived from Red Algae of the Genus Laurencia” (Marine Drugs, 2019)
Read-outs that look alike come from different tables or passages of the source.

Tests used:
A. salina nauplii = assay: Artemia salina toxicity assay; assay type: in vivo; conditions: in vivo
Experimental: (§1) The short-term toxicity assay with A. salina nauplii was used to determine the toxicity of secondary metabolites. Hatching of A. salina nauplii was carried out in ASW (35‰) using 0.5 g of cysts incubated in 500 mL seawater at a temperature of 25 ± 1 °C and lateral illumination (1000 Lux). All cysts were kept in continuous suspension with aeration and 24 h later hatched larvae (instar I) were harvested. Toxicity assays were carried out in three independent experiments in 24-well plates with four replicates of each tested concentration. Ten nauplii per well were transferred with a Pasteur pipette into the 24-well plates and each well was filled with 2 mL of ASW and 50 μL of various concentrations of the tested compounds in methanol. Control treatments received 50 μL of methanol. Plates were incubated in the dark at 25 ± 1 °C for 48 h. Mortality was assessed by recording the number of individuals with no movement of their appendages within 10 seconds and is expressed as the percentage of the total number of assessed individuals for each concentration.
(§2) For EC50 or IC50 (the concentration that results in 50% stimulation or inhibition relative to the control) calculations in GraphPad Prism v.6, all data were fitted to the curve according to the following models for normalized response: Y = 100/(1 + 10^((X − LogIC50))) or Y = 100/(1 + 10^((LogEC50 − X))) depending on the trend of the curve.

[1] = Artemia salina toxicity assay; assay type: in vivo; conditions: Artemia salina, in vivo, read-out: EC50 Artemia salina toxicity (mortality)
Experimental: as §1, §2

cyprids of A. amphitrite = assay: whole plant or invertebrate; assay type: in vivo; conditions: for EC50 / IC50: Amphibalanus amphitrite; for EC50: read-out: EC50 No Metamorphosis; for IC50: read-out: IC50 Settlement; for EC50 values for settlement inhibition of barnacle cyprids (in words): consistently, 24-72 h
Experimental: (§3) Adult A. amphitrite (Cirripedia, Balanidae) were collected from boat docks at Port Mikrolimano and Floisvos, Athens, Greece. Animals were cleaned of epibionts with a small hard brush and meticulously identified as individuals of the species. Adult barnacles were kept in separate aerated glass tanks (20 L) containing 200-μm filtered natural seawater at 27 °C and a 12:12 L:D photoperiod. Tanks were fed with 24-h hatched Artemia sp. (Branchiopoda) nauplii and Tetraselmis suecica (Chlorodendrophyceae) and Skeletonema costatum (Bacillariophyceae) algae each day and seawater was changed on alternate days. Upon stress to induce oviposition (exposure to air for 24 h or immersion in fresh water for 5 h), adults were returned to seawater for larval release. Hatched nauplii were attracted to a point light source, collected and placed into a beaker containing 2 or 3 L of 0.7 μm GF/F (GE Healthcare, Little Chalfont, UK )-filtered natural seawater at a density of approximately 1–2 nauplii/mL with gentle aeration. Nauplii were maintained at 27 °C at a 12:12 L:D photoperiod on a diet of C. gracilis (Bacillariophyceae) provided at a density of 2 × 10^5 cells/mL. Cultured in these conditions, nauplii metamorphosed to cyprids in 5 days. Aliquots of these cyprids were collected with a wide-mouthed Pasteur pipette and aged at 4 °C for 1 day prior to use in settlement assays. Only batches of cyprids that were active and had numerous oil cells, representing energy reserves, were used in settlement assays.
(§4) Assays were conducted by adding 10 cyprids into individual wells of a 24-well polystyrene sterile microplate (Orange Scientific, Braine l’Alleud, Belgium) with 2 mL of artificial sea water (ASW) (25‰) and various concentrations of the chemical compounds as listed in Table 1. These experiments were repeated at least three times with four replicates for each concentration of any given compound (n = 120 cyprids/compound). Stock solutions for all compounds were prepared in methanol (Scharlab, Barcelona, Spain) and serial dilutions were prepared in 0.7 μm (GF/F, GE Healthcare, Little Chalfont, UK), filtered sea water to have a final concentration of 2.5% methanol in each assay solution. Plates were covered and sealed with Parafilm® to avoid evaporation and incubated at 25 °C away from any light source and examined after 24, 48 and 72 h. Each animal was inspected under a stereomicroscope and its condition was recorded. […] Both permanently attached and metamorphosed individuals were counted as settled or juveniles. The remainder were counted as ‘no metamorphosis’, i.e. animals that responded to light touch and were still cyprids at the end of the experiments with no overt signs of metamorphosis.
as §2

in vivo = assay type: in vivo; conditions: Amphibalanus amphitrite, in vivo, read-out: LC50 Mortality; for LC50 at 24 h: 24 h exposure; for LC50 at 48 h: 48 h exposure; for LC50 at 72 h: 72 h exposure
Experimental: as §3, §4, §2

Chaetoceros gracilis = Chaetoceros gracilis toxicity (phytoplankton growth) assay; assay type: cell-based; conditions: 96 h
Experimental: For phytoplankton growth toxicity assays, the criterion for assay validity was that the cell count of the negative control after 96 h should be ≥2 × 10^5 cells/mL [40].
The centric marine diatom C. gracilis Schütt (strain CCMP1315) was grown photoautotrophically in autoclaved artificial seawater (sea salts; Sigma-Aldrich, St. Louis, MO, USA) (30‰) supplemented with F/2 (half-strength medium f as subsequently modified) in 100 mL medium at 20 °C and with ambient air bubbled in the media. By monitoring cell density, an adjusted culture of >1 × 10^6 cells/mL was used for the toxicity assays. At 96 h, a 0.9 mL aliquot of each treatment was sampled, mixed with 0.1 mL Lugol and cell density was counted. Experiments were assumed valid if cell count in the control after 96 h was […].
as §2

[2] = test system: five strains of marine bacteria; assay: Marine bacteria growth assay, positive control (strain not specified); assay type: cell-based; conditions: 40 μL of 0.5 M per disc
Experimental: The ability of selected metabolites to inhibit the growth of bacteria was assessed using five strains of marine bacteria involved in marine surface biofilm formation, namely, B. subtilis, B. mojavensis, B. thuringiensis, P. putita and P. pseudoalcaligenes. Bacterial strains were maintained on Zobel marine agar plates. Sterile filter paper discs (4 mm) (GF/F; GE Healthcare, Little Chalfont, UK) were loaded with 40 μL samples of serial dilutions of each tested metabolite, allowed to dry at room temperature and then placed on agar plates (Zobel marine agar, pH = 7.3), which were seeded with a single strain of bacteria. Plates were incubated for 24 h at 25 °C. Marine bacteria growth inhibition was determined by measuring the zone of inhibition in mm around the filter paper disc. As a positive and negative control, standard discs were loaded with 40 μL of 0.5 M penicillin G (2 to 10 mm diameter) or solvent (40 μL methanol), respectively.

Q: Which results are given for `Cc1ccc(C2(C)CCC(=CBr)C2C)c(O)c1` (stereo not drawn) [Compound 4, iso-laurenisol]?
A: A. salina exclusion criterion (>10-fold change in EC50 between 24 h and 48 h) (A. salina nauplii): did not pass this criterion; LC50 at 24 h [1]: 21100 nM; LC50 at 48 h [1]: 739 nM; EC50 (cyprids of A. amphitrite; 24 h): 10400 nM; IC50 (cyprids of A. amphitrite; 24 h): 120 nM; EC50 (cyprids of A. amphitrite; 48 h): 12400 nM; IC50 (cyprids of A. amphitrite; 48 h): 180 nM; EC50 (cyprids of A. amphitrite; 72 h): 5850 nM; IC50 (cyprids of A. amphitrite; 72 h): 340 nM; EC50 values for settlement inhibition of barnacle cyprids (in words) (cyprids of A. amphitrite): sub-micromolar; LC50 at 24 h (in vivo): 3550 nM; LC50 at 48 h (in vivo): 2980 nM; LC50 at 72 h (in vivo): 2800 nM

Q: Which results are given for `C=C1C[C@H](O)[C@H](Br)C(C)(C)[C@@]12CCC(C)=C(Cl)C2` [Compound 12, elatol]?
A: A. salina exclusion criterion (>10-fold change in EC50 between 24 h and 48 h) (A. salina nauplii): did not pass this criterion; LC50 at 24 h [1]: 6590 nM; LC50 at 48 h [1]: 373 nM; EC50 (cyprids of A. amphitrite; 24 h): 396 nM; IC50 (cyprids of A. amphitrite; 24 h): 89 nM; EC50 (cyprids of A. amphitrite; 48 h): 250 nM; IC50 (cyprids of A. amphitrite; 48 h): 73 nM; EC50 (cyprids of A. amphitrite; 72 h): 66 nM; IC50 (cyprids of A. amphitrite; 72 h): 42 nM; EC50 values for settlement inhibition of barnacle cyprids (in words) (cyprids of A. amphitrite): sub-micromolar; toxic effect on cyprids (cyprids of A. amphitrite; in vivo): obvious toxic effect on cyprids; LC50 at 24 h (in vivo): 327 nM; LC50 at 48 h (in vivo): 194 nM; LC50 at 72 h (in vivo): 61 nM

Q: Which results are given for `C#CC=CCC1OC(C(Br)CC)CC(OC(C)=O)C(Cl)CC1Cl` (stereo not drawn) [Compound 22, laurencienyne]?
A: LC50 at 24 h [1]: 3070 nM; LC50 at 48 h [1]: 9630 nM; C. gracilis exclusion criterion (EC50 compared with bromosphaerol) (Chaetoceros gracilis): did not pass this criterion; EC50 (Chaetoceros gracilis; Chaetoceros neogracilis): 2150 nM; EC50 (cyprids of A. amphitrite; 24 h): 8 nM; IC50 (cyprids of A. amphitrite; 24 h): 25 nM; EC50 (cyprids of A. amphitrite; 48 h): 10 nM; IC50 (cyprids of A. amphitrite; 48 h): 43 nM; EC50 (cyprids of A. amphitrite; 72 h): 58700 nM; IC50 (cyprids of A. amphitrite; 72 h): 55 nM; EC50 values for settlement inhibition of barnacle cyprids (in words) (cyprids of A. amphitrite): sub-micromolar; LC50 at 24 h (in vivo): 6860 nM; LC50 at 48 h (in vivo): 10100 nM; LC50 at 72 h (in vivo): 71300 nM

Q: With `CC1(C)S[C@@H]2[C@H](NC(=O)Cc3ccccc3)C(=O)N2[C@H]1C(=O)O` [penicillin G] as the compound, how does the “zone of inhibition (diameter)” value [2] read?
A: 2 to 10 mm
